According to BigSolDB 2.1:

NC(N)=S
Conditions	solubility (mole fraction)
in ethanol, 292.65 K	0.0224
in ethanol, 293.85 K	0.0227
in ethanol, 299.45 K	0.0256
in ethanol, 302.75 K	0.0281
in ethanol, 305.85 K	0.0295
in ethanol, 308.95 K	0.0324
in ethanol, 309.4 K	0.0331
in ethanol, 311.65 K	0.0345
in ethanol, 312.55 K	0.035
in ethanol, 312.75 K	0.0353
in ethanol, 313.9 K	0.0364
in ethanol, 314.35 K	0.0375
in ethanol, 315.55 K	0.0384
in ethanol, 316.4 K	0.0386
in ethanol, 318.2 K	0.0399
in ethanol, 320 K	0.0422
in methanol, 298.65 K	0.0534
in methanol, 301.45 K	0.0565
in methanol, 304.35 K	0.0606
in methanol, 307.85 K	0.0643
in methanol, 309.05 K	0.0667
in methanol, 311.25 K	0.0702
in methanol, 314.55 K	0.0761
in methanol, 319.45 K	0.0821
in methanol, 321.25 K	0.0872
